Results as given in patent US9415055B2, “Cyclic amines” (H. Lundbeck A/S, priority 2012, dated 2016).
pIC50: −log10 of the molar value.

Molecular target: P2X7 receptor (Homo sapiens (Human), UniProt Q99572)
Experiment: P2X7 FLIPR assay: antagonism of BzATP response in 293 HEK cells stably expressing P2X7 receptor
Type: cell-based
Conditions: FLIPR fluorescence (Fluo-4), agonist BzATP, 293 HEK cells stably transfected with P2X7 receptor
In short: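 Antagonist IC50 derived from FLIPR Tetra Fluo-4 calcium signal evoked by BzATP. Compound pre-incubation was 30 min at room temperature on P2X7-expressing HEK293 cells, seeded 24 h before in low-serum medium and dye-loaded 30 min at 37 °C then 30 min at RT.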

Sequence of P2X7 receptor (Q99572 whole entry): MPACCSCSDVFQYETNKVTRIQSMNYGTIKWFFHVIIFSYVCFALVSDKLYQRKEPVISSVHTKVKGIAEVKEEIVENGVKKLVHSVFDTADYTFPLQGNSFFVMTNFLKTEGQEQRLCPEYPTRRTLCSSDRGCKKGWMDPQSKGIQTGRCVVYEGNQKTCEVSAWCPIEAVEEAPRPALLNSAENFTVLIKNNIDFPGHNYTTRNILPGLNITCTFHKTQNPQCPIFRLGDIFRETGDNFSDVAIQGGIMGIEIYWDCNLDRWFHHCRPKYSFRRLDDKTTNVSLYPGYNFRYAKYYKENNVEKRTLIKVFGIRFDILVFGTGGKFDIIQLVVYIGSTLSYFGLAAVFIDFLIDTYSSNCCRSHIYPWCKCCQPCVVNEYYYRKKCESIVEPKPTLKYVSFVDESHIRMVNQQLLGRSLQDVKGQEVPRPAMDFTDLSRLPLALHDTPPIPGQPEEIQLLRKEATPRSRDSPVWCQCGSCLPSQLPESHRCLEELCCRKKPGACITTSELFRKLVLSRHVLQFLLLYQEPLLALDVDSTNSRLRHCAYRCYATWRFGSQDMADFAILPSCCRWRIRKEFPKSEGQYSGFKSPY

pIC50 | Compound
7.77 | O=C(NCC(c1cnc(C(F)(F)F)nc1)N1CCOCC1)c1cccc(C(F)(F)F)c1Cl (single isomer, unassigned; (+)) [(+)2-chloro-N-[2-morpholino-2-[2-(trifluoromethyl)pyrimidin-] [(+)2-Chloro-N-[2-morpholino-2-[2-(trifluoromethyl)pyrimidin-5-yl]ethyl]-3-(trifluoromethyl)benzamide]
8.33 | O=C(NCC(c1cnc(C(F)(F)F)nc1)N1CCC(F)(F)CC1)c1c(F)cc(Cl)cc1Cl (single isomer, unassigned; (+)) [(+)2,4-dichloro-N-[2-(4,4-difluoro-1-piperidyl)-2-[2-(triflu] [(+)2,4-dichloro-6-fluoro-N-(2-(4,4-difluoropiperidin-1-yl)-2-(2-(trifluoromethyl)pyrimidin-5-yl)ethyl)benzamide]
7.19 | CS(=O)(=O)c1ccc(Cl)c(C(=O)NCC(c2ccc(Cl)cc2)N2CCOCC2)c1 (single isomer, unassigned; (-)) [(−)2-chloro-N-[2-(4-chlorophenyl)-2-morpholino-ethyl]-5-meth] [(−)2-chloro-N-(2-(4-chlorophenyl)-2-morpholinoethyl)-5-(methylsulfonyl)benzamide]
8.15 | Cc1ncc(C(CNC(=O)c2cccc(OC(F)F)c2Cl)N2CCC(F)(F)CC2)cn1 (single isomer, unassigned; (+)) [(+)2-chloro-3-(difluoromethoxy)-N-[2-(4,4-difluoro-1-piperid] [(+)2-chloro-3-(difluoromethoxy)-N-(2-(4,4-difluoropiperidin-1-yl)-2-(2-methylpyrimidin-5-yl)ethyl)benzamide]
9.22 | O=C(NCC(c1ccc(Cl)cc1)N1CCOCC1)c1cccc(Cl)c1Cl (stereo not shown) [2,3-Dichloro-N-[2-(4-chloro-phenyl)-2-morpholin-4-yl-ethyl]-benzamide]
8.31 | O=C(NCC(c1cnc(C(F)(F)F)nc1)N1CCC(F)(F)CC1)c1cc(F)cc(Cl)c1Cl (single isomer, unassigned; (+)) [(+)2,3-dichloro-N-[2-(4,4-difluoro-1-piperidyl)-2-[2-(triflu] [(+)2,3-dichloro-5-fluoro-N-(2-(4,4-difluoropiperidin-1-yl)-2-(2-(trifluoromethyl)pyrimidin-5-yl)ethyl)benzamide]
8.19 | Cc1ncc(C(CNC(=O)c2cccc(Cl)c2Cl)N2CCC(F)CC2)cn1 (single isomer, unassigned; (+)) [(+)2,3-dichloro-N-[2-(4-fluoro-1-piperidyl)-2-(2-methylpyrim] [(+2,3-dichloro-N-(2-(4-fluoropiperidin-1-yl)-2-(2-methylpyrimidin-5-yl)ethyl)benzamide]
8.40 | O=C(NCC(c1ccc(F)nc1)N1CCC(F)(F)CC1)c1ccccc1Cl (stereo not shown) [2-chloro-N-[2-(4,4-difluoro-1-piperidyl)-2-(6-fluoro-3-pyridyl)ethyl]benzamide]
6.92 | Cc1ncc(C(CNC(=O)c2c(Cl)cccc2Cl)N2CCOCC2)cn1 (stereo not shown) [2,6-dichloro-N-(2-(2-methylpyrimidin-5-yl)-2-morpholinoethyl)benzamide]
7.85 | Cc1ncc(C(CNC(=O)c2cc(F)cc(Cl)c2Cl)N2CCC(F)(F)CC2)cn1 (single isomer, unassigned; (-)) [(−)2,3-dichloro-N-[2-(4,4-difluoro-1-piperidyl)-2-(2-methylp] [(−)2,3-dichloro-5-fluoro-N-(2-(4,4-difluoropiperidin-1-yl)-2-(2-methylpyrimidin-5-yl)ethyl)benzamide]
8.15 | O=C(NCC(c1cnc(C(F)(F)F)nc1)N1CCC(F)(F)CC1)c1c(Cl)ccc(F)c1Cl (single isomer, unassigned; (+)) [(+)2,6-dichloro-N-[2-(4,4-difluoro-1-piperidyl)-2-[2-(triflu] [(+)2,6-dichloro-5-fluoro-N-(2-(4,4-difluoropiperidin-1-yl)-2-(2-(trifluoromethyl)pyrimidin-5-yl)ethyl)benzamide]
7.49 | Cc1ncc(C(CNC(=O)c2c(F)cccc2Cl)N2CCC(F)(F)CC2)cn1 (single isomer, unassigned; (-)) [(−)2-chloro-N-[2-(4,4-difluoro-1-piperidyl)-2-(2-methylpyrim] [(−)2-chloro-6-fluoro-N-(2-(4,4-difluoropiperidin-1-yl)-2-(2-methylpyrimidin-5-yl)ethyl)benzamide]
7.42 | Cc1ccc(C(CNC(=O)c2cc(C)ccc2Cl)N2CCOCC2)cc1 (stereo not shown) [2-Chloro-5-methyl-N-(2-morpholin-4-yl-2-p-tolyl-ethyl)-benzamide]
6.55 | Cc1ncc(C(CNC(=O)c2ccc(Cl)cc2Cl)N2CCC(Cl)CC2)cn1 (stereo not shown) [2,4-dichloro-N-(2-(4-chloropiperidin-1-yl)-2-(2-methylpyrimidin-5-yl)ethyl)benzamide]
7.44 | CCc1ncc(C(CNC(=O)c2c(F)cccc2Cl)N2CCC(F)(F)CC2)cn1 (single isomer, unassigned; (-)) [(−)2-chloro-N-[2-(4,4-difluoro-1-piperidyl)-2-(2-ethylpyrimi] [(−)2-chloro-6-fluoro-N-(2-(4,4-difluoropiperidin-1-yl)-2-(2-ethylpyrimidin-5-yl)ethyl)benzamide]
7.25 | Cn1cc(C(CNC(=O)c2c(Cl)cccc2Cl)N2CCC(F)(F)CC2)cn1 (single isomer, unassigned; (+)) [(+)2,6-dichloro-N-[2-(4,4-difluoro-1-piperidyl)-2-(1-methylp] [(+)2,6-dichloro-N-(2-(4,4-difluoropiperidin-1-yl)-2-(1-methyl-1H-pyrazol-4-yl)ethyl)benzamide]
8.08 | O=C(NCC(c1cnc(C(F)(F)F)nc1)N1CCC(F)(F)CC1)c1c(F)cccc1Cl (single isomer, unassigned; (+)) [(+)2-chloro-N-[2-(4,4-difluoro-1-piperidyl)-2-[2-(trifluorom] [(+)2-chloro-6-fluoro-N-(2-(4,4-difluoropiperidin-1-yl)-2-(2-(trifluoromethyl)pyrimidin-5-yl)ethyl)benzamide]
7.77 | O=C(NCC(c1ccc(Cl)cc1)N1CCCOCC1)c1cccc(Cl)c1Cl (stereo not shown) [2,3-dichloro-N-(2-(4-chlorophenyl)-2-(1,4-oxazepan-4-yl)ethyl)benzamide]
7.48 | Cc1ccc(C(CNC(=O)c2cccc(F)c2Cl)N2CCC(F)(F)CC2)cn1 (single isomer, unassigned; (+)) [(+)2-chloro-N-[2-(4,4-difluoro-1-piperidyl)-2-(6-methyl-3-py] [(+)2-chloro-3-fluoro-N-(2-(4,4-difluoropiperidin-1-yl)-2-(2-methylpyridin-5-yl)ethyl)benzamide]
8.64 | COc1cccc(C(=O)NCC(c2ccc(C(F)F)nc2)N2CCC(F)(F)CC2)c1Cl (single isomer, unassigned; (+)) [(+)2-chloro-N-[2-[6-(difluoromethyl)-3-pyridyl]-2-(4,4-diflu] [(+)2-chloro-3-methoxy-N-(2-(2-(difluoromethyl)pyridin-5-yl)-2-(4,4-difluoropiperidin-1-yl)ethyl)benzamide]
7.16 | Cc1ncc(C(CNC(=O)c2cccc(Cl)c2Cl)N2CCOCC2)cn1 (single isomer, unassigned; (+)) [(+)2,3-dichloro-N-[2-(2-methylpyrimidin-5-yl)-2-morpholino-e] [(+)2,3-Dichloro-N-[2-(2-methylpyrimidin-5-yl)-2-morpholino-ethyl]benzamide]
7.54 | O=C(NCC(c1ccc(C(F)(F)F)nc1)N1CCOCC1)c1c(F)cccc1F (single isomer, unassigned; (+)) [(+)2,6-difluoro-N-[2-morpholino-2-[6-(trifluoromethyl)-3-pyr] [(+)2,6-Difluoro-N-[2-morpholino-2-[6-(trifluoromethyl)-3-pyridyl]ethyl]benzamide]
8.52 | O=C(NCC(c1cnc(C2CC2)nc1)N1CCC(F)(F)CC1)c1ccccc1Cl (single isomer, unassigned; (+)) [(+)2-chloro-N-[2-(2-cyclopropylpyrimidin-5-yl)-2-(4,4-difluo] [(+)2-chloro-N-(2-(2-cyclopropylpyrimidin-5-yl)-2-(4,4-difluoropiperidin-1-yl)ethyl)benzamide]
7.22 | O=C(NCC(c1cnc(C(F)F)nc1)N1CCOCC1)c1ccccc1Cl (single isomer, unassigned; (+)) [(+)2-chloro-N-[2-[2-(difluoromethyl)pyrimidin-5-yl]-2-morpho] [(+)2-chloro-N-(2-(2-(difluoromethyl)pyrimidin-5-yl)-2-morpholinoethyl)benzamide]
7.72 | Cc1ncc(C(CNC(=O)c2cccc(Cl)c2Cl)N2CCC(=O)CC2)cn1 (stereo not shown) [2,3-Dichloro-N-(2-(2-methylpyrimidin-5-yl)-2-(4-oxopiperidin-1-yl)ethyl)benzamide]
7.92 | Cn1cc(C(CNC(=O)c2cccc(Cl)c2Cl)N2CCC(F)(F)CC2)cn1 (single isomer, unassigned; (+)) [(+)2,3-dichloro-N-[2-(4,4-difluoro-1-piperidyl)-2-(1-methylp] [(+)2,3-dichloro-N-(2-(4,4-difluoropiperidin-1-yl)-2-(1-methyl-1H-pyrazol-4-yl)ethyl)benzamide]

Compound | pIC50
O=C(NCC(c1ccc(C(F)(F)F)nc1)N1CCC(F)(F)CC1)c1c(F)cccc1Cl (single isomer, unassigned; (+)) [(+)2-chloro-6-fluoro-N-(2-(4,4-difluoropiperidin-1-yl)-2-(2-(trifluoromethyl)pyridin-5-yl)ethyl)benzamide] | 9.21
O=C(NCC(c1ccc(C(F)(F)F)nc1)N1CCC(F)(F)CC1)c1c(F)cccc1Cl (single isomer, unassigned; (-)) [(−)2-chloro-N-[2-(4,4-difluoro-1-piperidyl)-2-[6-(trifluorom] [(−)2-chloro-6-fluoro-N-(2-(4,4-difluoropiperidin-1-yl)-2-(trifluoromethyl)pyridin-5-yl)ethyl)benzamide] | 8.52
